According to patent US9828390B2, “Tetrahydropyrrolo[3,4-D][1,3]thiazine-derivative as BACE inhibitor” (Eli Lilly and Company, priority 2014, dated 2017):

Assay: Crystal form stability versus relative humidity
Format: physicochemical

| Structure (SMILES) | Crystal form stability (room temperature and relative humidity less than about 15%) | Crystal form stability (room temperature and relative humidity greater than about 15%) |
| --- | --- | --- |
| COc1cnc(C(=O)Nc2ccc(F)c([C@]34CN(c5ncc(F)cn5)C[C@H]3CSC(N)=N4)c2)cn1 [Example 1A, Crystalline Form 1 N-[3-[(4aR,7aS)-2-Amino-6-(5-fluoropyrimidin-2-yl)-4,4a,5,7-tetrahydropyrrolo[3,4-d][1,3]thiazin-7a-yl]-4-fluoro-phenyl]-5-methoxy-pyrazine-2-carboxamide] | stable crystal form | – |
| COc1cnc(C(=O)Nc2ccc(F)c([C@]34CN(c5ncc(F)cn5)C[C@@H]3CN=C(N)S4)c2)cn1.O [Example 1B, Crystalline Form 2 N-[3-[(4aR,7aS)-2-Amino-6-(5-fluoropyrimidin-2-yl)-4,4a,5,7-tetrahydropyrrolo[3,4-d][1,3]thiazin-7a-yl]-4-fluoro-phenyl]-5-methoxy-pyrazine-2-carboxamide (hydrated)] | – | stable crystal form |
